Here are results for four molecules from patent US11911439B2, “Beta-casein A2 and prevention of inflammation of the bowel” (THE A2 MILK COMPANY LIMITED, priority 2013, dated 2024).

In one assay the test system is SH-SY5Y neuronal cells. Kind of assay: Intracellular cysteine, GSH and methylation metabolites by HPLC. The format is cell-based, human. The procedure:
Briefly, SH-SY5Y neuronal cells were grown to confluence in α-MEM. Media was aspirated and the cells were washed twice with 1 mL of ice cold HBSS. HBSS was aspirated and 0.6 mL ice cold dH2O was added to the cells. The cells were scraped from the flask/dish and suspended in dH2O. The cell suspension was sonicated for 15 s on ice and 100 μL of the suspension was used to determine the protein content. The remaining lysate was added to a microcentrifuge tube and an equal volume of 0.4 N perchloric acid was added, followed by incubation on ice for 5 min. Samples were centrifuged at 5,000×g and the supernatant transferred to new microcentrifuge tubes. 100 μL of sample was added to a conical micro-autosampler vial and kept at 4° C. in the autosampler cooling tray. 10 μL of this sample was injected into the HPLC system.
The separation of redox and methylation pathway metabolites was accomplished using an Agilent Eclipse XDB-C8 analytical column (3×150 mm; 3.5 μm) and an Agilent Eclipse XDB-C8 (4.6×12.5 mm; 5 μm) guard column. Two mobile phases were used: Mobile Phase A was 0% acetonitrile, 25 mM sodium phosphate, 1.4 mM 1-octanesulfonic acid, adjusted to pH 2.65 with phosphoric acid. Mobile Phase B was 50% acetonitrile. The flow rate was initially set at 0.6 mL/min and a step gradient was used: 0-9 min 0% B, 9-19 min 50% B, 19-30 min 50% B. The column was then equilibrated with 5% B for 12 min prior to the next run. Temperature was maintained at 27° C. The electrochemical detector was an ESA CoulArray with BDD Analytical cell Model 5040 and the operating potential was set at 1500 mV. Sample concentrations were determined from the peak areas of metabolites using standard calibration curves and ESA-supplied HPLC software. Sample concentrations were normalised against protein content. In some cases samples were diluted in mobile phase as needed or up to 50 μl of sample was injected to assure that thiol levels were within the range of the standard curve.

For assay [1], the system named is SH-SY5Y cells. The assay is described as follows: Whole genome mRNA microarray. It counts as cell-based, human. The settings on record: FDR<0.1; for differentially expressed transcripts (DETs): cells treated for 4 hours. As for the experimental part:
(§1) The changes in SAM/SAH could potentially affect global DNA methylation, influencing the genes involved in various functions. The global DNA methylation levels induced by BCM-7 were investigated using methyl-CpG binding domain (MBD) protein-enriched genome sequencing (MBD-seq) as described previously (Trivedi M., et al., Mol. Pharm. 2014), whereas mRNA translation microarray data was obtained using Agilent V3 microarray chip, from non-treated control SH-SY5Y cells and cells treated for 4 hours with 1 μM BCM-7.
For whole genome microarray hybridisations, 500 ng of total RNA from each sample was labelled with fluorescent dye (Cy3; Amersham Biosciences Corp, Piscataway, NJ) using the Low RNA Input Linear Amplification Labelling kit (Agilent Technologies, Palo Alto, CA) following the manufacturer's protocol. The amount and quality of the fluorescently labelled cRNA was assessed using a NanoDrop ND-1000 spectrophotometer and an Agilent Bioanalyzer. According to manufacturer's specifications, […] of Cy3-labeled cRNA was hybridized to the Agilent Human Whole Genome Oligo Microarray (Agilent Technologies, Inc., Palo Alto, CA) for 17 hrs prior to washing and scanning. Data was extracted from scanned images using Feature Extraction Software (Agilent Technologies, Inc., Palo Alto, CA).
Transcripts included both genes and non-coding RNAs that were differentially methylated/transcribed.

The subject of assay [2] is SH-SY5Y cells. The assay is described as follows: Global DNA methylation by MBD-seq. The format is cell-based, human. The following applies: after BCM-7 exposure. The procedure:
as §1
Briefly, genomic DNA was extracted from samples with the Easy DNA kit (Invitrogen K1800-01) using the appropriate protocol for cell lines. Fragmentation was performed on Covaris S2 with the following settings: duty cycle 10%, intensity 5, 200 cycles per burst during 200 sec. Fragments were obtained having an average length of 200 bp. […] DNA with an input from 5-3 3 μg was analysed on the Agilent 2100 using a DNA 1000 chip. […] The concentrations of fragmented and captured DNA were determined on a Fluostar Optima plate reader with the Quant-IT PicoGreen dsDNA Assay Kit (Invitrogen P7589) at 480/520 nm. […]
The Illumina library amplification index protocol was used with the following alterations: 22 μl DNA was used and performed 21 cycles run. […] 1 μl was applied to a Agilent 2100 HS DNA chip and the concentration was determined by smear analysis on the Agilent 2100. […]

For assay [3], the system named is SH-SY5Y human neuronal cells. The procedure:
(§2) Pre-treatment in cells was performed for different time points for 30 min, 4, 24 and 48 h as described previously (Trivedi M., et al.; Mol. Pharm., 2014). Briefly, SH-SY5Y human neuronal cells and Caco-2 Gut epithelial cells were plated in six-well plates and were pretreated with drugs and incubated for various times prior to measuring uptake. Media were aspirated and cells were washed with 600 μL of HBSS at 37° C. Non-radioactive HBSS was aspirated, replaced with 600 μL of 37° C. HBSS containing [^35S]-cysteine, (1 μCi/1 mL), 10 μM unlabelled cysteine and 100 μM DTT, and the cells were incubated for 5 min. The [^35S]-cysteine/HBSS mixture was aspirated and treatment was terminated by two washes with ice-cold HBSS. Cells were then lysed with 600 μL of dH2O, scraped, collected in 1.5 mL microcentrifuge tubes, and sonicated for 10 s. 100 μL of each sample was aliquoted for protein assay. 200 μL of each sample (in triplicate) was aliquoted into scintillation vials with 4 mL of scintillation fluid, vortexed, and counted for radioactivity, normalized against protein content. […] Each * symbol in these Figures indicates a statistically significant difference (p<0.05) compared against the untreated control, and each #symbol indicates a statistically significant difference (p<0.005) compared against the untreated control.

Assay [4] relates to Caco-2 Gut epithelial cells. The settings on record: read-out: IC50 inhibition of cysteine uptake; GI epithelial cells. As for the experimental part: as §2
Assay [5] concerns colon myeloperoxidase (MPO) activity. Kind of assay: Colon MPO activity in rats fed A1/A2 diets. It counts as in vivo, Wistar rats. As for the experimental part:
(§3) Seventy two weaned (four week old) male Wistar rats were used. Following a 7-day acclimatisation period on a control diet, the rats were fed for either 12 or 60 hours with one of three diets: 100% A1 diet, 100% A2 diet, control diet (n=6 per treatment). The protein component of the diets were derived from skim milk (for the A1 and A2 diets) and on egg white (for the non-milk protein control diet), and were balanced for energy and macronutrient composition (see Table 1). Fifteen minutes before the end of the time period, rats received either naloxone or saline (control) via intra-peritoneal injection, and were then orally gavaged with a non-digestible tracer, titanium dioxide. Faecal and urine samples were collected at 7 time points over the following 24 hours, and stored at −20° C. (faecal) or −80° C. (urine) until they were analysed.
(§4) Colon tissue from the rats fed according to Example 1 was quantified for myeloperoxidase (MPO) activity based on an established method (Grisham, M. B., et al., Methods Enzymol., 1990, 186:729-742). Colon tissue (50 mg) was homogenised, partitioned via centrifugation, ruptured by ultrasonic probe and subjected to a freeze-thaw cycle. Endogenous MPO catalyses H2O2-dependent oxidation of 3,3′,5,5′-tetramethyl-benzidine substrate measured colourimetrically at 562 nm. […]

For assay [6], the system named is jejunum myeloperoxidase (MPO) activity. The assay is described as follows: Jejunum MPO activity in rats fed A1/A2 diets. The format is in vivo, Wistar rats. The following applies: on consumption of beta-casein A1. The procedure:
as §3, §4
In this example, tissue samples taken from the jejunum were analysed. […]

The subject of the next assay is colon tissue. Kind of assay: Intestinal histology of colon sections. The format is in vivo, Wistar rats. The settings on record: 60 hour naloxone group, A2-fed versus A1-fed rats, P<0.05. The procedure:
as §3
The procedure used for measuring change in morphology in the gastrointestinal tract of rats is based on histological evaluation of haemoxylin and eosin stained tissue sections under a light microscope (Knoch, B. et al., J. Nutrigenet. Nutrigenomics, 2009, 2(1):9-28 and Barnett, M. P., BMC Immunol., 2010, 11:39). This method was applied to sections derived from colon tissue of rats fed either the 100% A1 or 100% A2 diets to determine the effects of the beta-casein variants on intestinal inflammation.

Where [7] appears, read: neuronal cells, 30 min, 4 h, 24 h.

Where a SMILES comes first, the peptide text is derived from it.

In the case of `CN1CC[C@]23c4c5ccc(O)c4O[C@H]2[C@@H](O)C=C[C@H]3[C@H]1C5` [morphine], the cysteine levels result in the assay with SH-SY5Y neuronal cells (setting [7]) is on record as “time-dependent decreases”. Besides, in the assay with SH-SY5Y cells [1], the “DETs shared by both morphine and BCM-7” value was 501; the “differentially expressed transcripts (DETs)” value is given as 7,592.

By IC50 is commonly meant the concentration that inhibits the measured activity by half. On to `CC[C@H](C)[C@H](NC(=O)[C@@H]1CCCN1C(=O)CNC(=O)[C@@H]1CCCN1C(=O)[C@H](Cc1ccccc1)NC(=O)[C@@H]1CCCN1C(=O)[C@@H](N)Cc1ccc(O)cc1)C(=O)O` [BCM-7, beta-casomorphin-7] (H-YPFPGPI-OH; N-terminus and C-terminus assumed), for which, in the assay with SH-SY5Y cells [2], the “epigenetic status (DNA methylation) of cytokines such as NFkappaB and interleukins such as IL1” value is on record as “altered”; the “epigenetic status of the MPO gene” value is listed as “alters the epigenetic status”. Besides, in the assay with SH-SY5Y neuronal cells (different time points), the “ratio of SAM/SAH (methylation capacity)” value was “affected”. Further, in the assay on SH-SY5Y neuronal cells (setting [7]), the GSH levels result is given as “time-dependent decreases” and the cysteine levels entry is “time-dependent decreases”. In addition, the “GSH/GSSG ratio (redox status)” value in the assay with SH-SY5Y neuronal cells (neuronal cells, over time) was “decreased”. Also, in the assay with SH-SY5Y cells [1], the “DETs shared by both morphine and BCM-7” value was 501; the “differentially expressed transcripts (DETs)” value was 1,467. For the same molecule, the “receptor mediation of cysteine uptake inhibition” value in assay [3] (blockade by selective μ-antagonist (CTAP), not by delta antagonist (NTI)) was “μ-opioid receptor mediated”. Besides, the “time at which inhibition of cysteine uptake was fully developed” value in assay [3] (neuronal cells and GI epithelial cells (FIG. 6)) was 30 min. Moreover, the half-inhibitory concentration (IC50) in assay [3] (read-out: IC50 inhibition of cysteine uptake, neuronal cells) is 1.31 nM. Moreover, the IC50 in assay [4] turned out to be 15.9 nM.

B1: beta-casein A1 (protein, UniProt P02666 16-224, looked up, variant P67H)
Beta-casein: RELEELNVPGEIVESLSSSEESITRINKKIEKFQSEEQQQTEDELQDKIHPFAQTQSLVYPFPGPIHNSLPQNIPPLTQTPVVVPPFLQPEVMGVSKVKEAMAPKHKEMPFPKYPVEPFTESQSLTLTDVENLHLPLPLLQSWMHQPHQPLPPTVMFPPQSVLSLSQSKVLPVPQKAVPYPQRDMPIQAFLLYQEPVLGPVRGPFPIIV
As to B1, the “colon MPO activity” value in assay [5] (beta-casein A1-fed rats compared to beta-casein A2-fed rats) is reported as “increased”. In addition, the “effect on colon MPO activity in rats treated with naloxone” value in assay [5] (rats treated with naloxone) is listed as “not observed”. The “inflammation in the small intestine (jejunum MPO)” value in assay [6] was “no observable increase”.

B2: beta-casein A2 (protein, UniProt P02666 16-224, looked up)
Beta-casein: RELEELNVPGEIVESLSSSEESITRINKKIEKFQSEEQQQTEDELQDKIHPFAQTQSLVYPFPGPIPNSLPQNIPPLTQTPVVVPPFLQPEVMGVSKVKEAMAPKHKEMPFPKYPVEPFTESQSLTLTDVENLHLPLPLLQSWMHQPHQPLPPTVMFPPQSVLSLSQSKVLPVPQKAVPYPQRDMPIQAFLLYQEPVLGPVRGPFPIIV
notes: any beta-casein having proline at position 67
Consider B2, for which the histology score result in the assay on colon tissue was “significantly higher score”.
